Like-named read-outs stand apart in the source and are kept apart here.
Tests used:
[1] = humans; compared to formulations containing non-micronized genistein; cited from earlier work
[2] = mice; compared to formulations containing non-micronized genistein; cited from earlier work
[3] = canines; compared to formulations containing non-micronized genistein; cited from earlier work
[4] = test system: MRC5 normal human lung fibroblasts; test: Clonogenic cell survival after radiation, MRC5 cells; format: cell-based; settings: for Genistein (D0): 5 μM nanoparticulate genistein 24 hours before radiation; for DMF (Dose Modifying Factor): 5 μM nanoparticulate genistein vs vehicle
Description: (§1) In the experiments described herein, a R10.5M5 double scattered proton beam (a proton beam with a maximum range of 10.5 cm where the SOBP comprises the final 5 cm) was utilized with precise positioning of culture dishes at specific points at the entrance, middle, and end of the SOBP. For this beam, the “low LET” was at 2 cm depth, corresponding to about 4 keV/μM, and the high LET was at 10 cm depth, corresponding to about 30 keV/μM. As used herein, the term “low LET” refers to about one to about ten (e.g., about one to three, two to four, three to five, four to six, five to seven, six to eight, seven to nine, or eight to ten) keV/μM unrestricted LET as determined from tables of proton stopping power in liquid water, available from the National Institute of Standards and Technology (stopping power and range tables for protons; “PSTAR”). The term “high-LET” refers to about 20 to 40 (e.g., 20 to 25, 25 to 30, 30 to 35, or 35 to 40) keV/μM, again as determined from PSTAR unrestricted LET tables.
(§2) Studies were conducted to determine whether a nanoparticulate genistein formulation affects cellular radiosensitivity to protons with increasing LET. Normal and cancer cell lines were exposed to low, intermediate, or high LET proton radiation. These experiments used the H1299 and H460 NSCLC cell lines, which are relevant to lung cancer research during medical radiation exposure as well as nonmedical or accidental radiation exposure. These cell lines were derived from human cancer patients and have well-known radiobiologic properties, with H1299 being relatively less radiosensitive. Both lines harbor Ras pathway activating mutations (H460, KRAS; H1299, NRAS). MRC5 human lung fibroblasts also were used as representative normal cells. Each cell line was obtained from the American Type Culture Collection (ATCC) and tested for mycoplasma regularly. Clonogenic cell survival studies were performed as described elsewhere (Cengel et al., Neoplasia 9(4):341-348, 2007). Briefly, cells were plated 24 hours prior to radiation at about 50% confluence. […] Cells were radμated using either 250 KVp x-rays or protons with lower vs. higher LET. […]
(§3) Relative radiosensitivity was numerically compared using a standard variable, D0 (the dose of radiation needed to reduce the surviving fraction by a factor of 1/e), which was determined from the positive solution to the quadratic equation of the form: βD^2+αD−1=0, where α and β are determined from the LQ survival curve fit as above. The Dose Modifying Factor (DMF) was determined by the quotient: […]

[5] = test system: H460 human non-small cell lung cancer (NSCLC) cells; test: Clonogenic cell survival after radiation, H460 cells; format: cell-based; settings: for Genistein (D0): 5 μM nanoparticulate genistein 24 hours before radiation; for DMF (Dose Modifying Factor): 5 μM nanoparticulate genistein vs vehicle, radiosensitization defined as DMF>1.1
Description: as §1, §2, §3

H1299 human NSCLC cells = test: Clonogenic cell survival after radiation, H1299 cells; format: cell-based; settings: for Genistein (D0): 5 μM nanoparticulate genistein 24 hours before radiation; for DMF (Dose Modifying Factor): 5 μM nanoparticulate genistein vs vehicle
Description: as §1
Studies were conducted to determine whether a nanoparticulate genistein formulation affects cellular radiosensitivity to protons with increasing LET. Normal and cancer cell lines were exposed to low, intermediate, or high LET proton radiation. These experiments used the H1299 and H460 NSCLC cell lines, which are relevant to lung cancer research during medical radiation exposure as well as nonmedical or accidental radiation exposure. These cell lines were derived from human cancer patients and have well-known radiobiologic properties, with H1299 being relatively less radiosensitive. Both lines harbor Ras pathway activating mutations (H460, KRAS; H1299, NRAS). MRC5 human lung fibroblasts also were used as representative normal cells. Each cell line was obtained from the American Type Culture Collection (ATCC) and tested for mycoplasma regularly. Clonogenic cell survival studies were performed as described elsewhere (Cengel et al., Neoplasia 9(4):341-348, 2007). Briefly, cells were plated 24 hours prior to radiation at about 50% confluence. […] Cells were radμated using either 250 KVp x-rays or protons with lower vs. higher LET. To vary the proton LET, cell dishes were placed at a depth of 2 cm (D2, low LET) or 10 cm (D10, high LET) in a R10.5M5 double scattered proton beam—a double scattered proton beam with a maximum range of 10.5 cm and a modulated depth of 5 cm, meaning that the Spread-out Bragg peak (SOBP) began roughly at a depth of 5.5 cm. In this configuration, the D2 and D10 positions corresponded to the entrance and terminal portions of the SOBP, respectively. After exposure to radiation, cells were trypsinized into a single cell suspension and re-plated at various densities without nanoparticulate genistein. About two weeks later (typically 13 to 16 days, depending on colony size), plates were rinsed and stained using crystal violet/ethanol, and colonies were enumerated using an Oxford Optronix automated colony counter with a minimum threshold size of 50 cells to define a colony. […]
as §3

[6] = High LET Protons (D10, 10 cm depth)

O=c1c(-c2ccc(O)cc2)coc2cc(O)cc(O)c12 [Genistein, 5,7-dihydroxy-3-(4-hydroxyphenyl)-chromen-4-one]
oral bioavailability [1]: increased oral bioavailability | oral bioavailability [2]: increased oral bioavailability | oral bioavailability [3]: increased oral bioavailability | Genistein (D0) [4, 6]: 1.26 | DMF (Dose Modifying Factor) ([4]; High LET Protons): 1.07 | Genistein (D0) ([4]; X-Rays (250 KVp)): 1.38 | DMF (Dose Modifying Factor) ([4]; X-Rays): 1.01 | Genistein (D0) [5, 6]: 2.23 | DMF (Dose Modifying Factor) ([5]; High LET Protons): 1.04 | Genistein (D0) ([5]; X-Rays (250 KVp), D0 = dose reducing surviving fraction by 1/e): 2.41 | DMF (Dose Modifying Factor) ([5]; X-Rays): 1.07 | Genistein (D0) (H1299 human NSCLC cells; [6]): 3.03 | DMF (Dose Modifying Factor) (H1299 human NSCLC cells; High LET Protons, radiosensitization defined as DMF>1.1): 1.35 | Genistein (D0) (H1299 human NSCLC cells; X-Rays (250 KVp)): 4.28 | DMF (Dose Modifying Factor) (H1299 human NSCLC cells; X-Rays, radiosensitization defined as DMF>1.1): 0.97 | DMF (Dose Modifying Factor) (H1299 human NSCLC cells; lower LET protons (D2, 2 cm depth)): 1.09

From patent US12403195B2, “Sensitizing cells to proton radiation” (Humanetics Corporation, priority 2017, dated 2025)
